Reference: the CheMixHub viscosity set

Test: xn = mol fraction of the nth substance listed

CC(=O)Nc1ccccc1 + Nc1ccccc1
viscosity [mPa·s], 101.3 kPa
Details | 298.15 K | 323.15 K
x1 = 0.108 | 46.7 | 23.6
x1 = 0.195 | 113.4 | 42.5

CC(=O)O.OCCNCCO + O
viscosity [mPa·s], 100 kPa
Details | x1 = 0.0126 | x2 = 0.1586 | x2 = 0.2897 | x2 = 0.4528 | x2 = 0.5293 | x2 = 0.6932 | x2 = 0.8573 | x2 = 0.9194 | x2 = 0.9549
293.15 K | 1.37 | 3625 | 2208 | 1042 | 658.3 | 162.6 | 19.25 | 6.362 | 3.027
303.15 K | 1.099 | 1492 | 946.1 | 473.9 | 310.7 | 87.19 | 12.67 | 4.584 | 2.301
313.15 K | 0.9188 | 686.5 | 452 | 239.3 | 162.4 | 51.05 | 8.836 | 3.442 | 1.818
323.15 K | 0.7821 | 346.1 | 236.3 | 131.8 | 92.22 | 32.12 | 6.455 | 2.69 | 1.484

CC(C)COCCO + O
298.15 K, 101 kPa
Details | viscosity [mPa·s]
x1 = 0.0037 | 0.9
x1 = 0.016 | 1.2
x1 = 0.0469 | 2.4
x1 = 0.0611 | 2.7
x1 = 0.11 | 3.65
x1 = 0.177 | 4.27
x1 = 0.263 | 4.4
x1 = 0.764 | 3.7

CCCC(=O)[O-].[NH3+]CCO + O
viscosity [mPa·s], 101 kPa
Details | x1 = 0.0063 | x1 = 0.0132 | x2 = 0.8927 | x2 = 0.9254 | x2 = 0.9508 | x2 = 0.9707 | x2 = 0.9793
293.15 K | 1.38 | 1.662 | 9.498 | 5.73 | 3.702 | 2.46 | 1.98
298.15 K | 1.248 | 1.476 | 7.89 | 4.836 | 3.21 | 2.145 | 1.776
303.15 K | 1.104 | 1.32 | 6.6 | 4.182 | 2.814 | 1.878 | 1.59

N[C@@H](Cc1c[nH]c2ccccc12)C(=O)O + O
303 K, 100 kPa
Details | viscosity [mPa·s]
x1 = 0.087 | 0.934
x1 = 0.0954 | 1
x1 = 0.0971 | 1.018
x1 = 0.0979 | 1.055
x1 = 0.0983 | 1.077
x1 = 0.0985 | 1.101

O=P(O)(O)O + O
Details | viscosity [mPa·s]
293.15 K, 101 kPa, x1 = 0.404 | 27.7
293.15 K, 101 kPa, x1 = 0.441 | 32.01
293.15 K, 101 kPa, x1 = 0.504 | 46.83
293.15 K, 101 kPa, x1 = 0.537 | 54.26
293.15 K, 101 kPa, x1 = 0.574 | 64.47
293.15 K, 101 kPa, x1 = 0.603 | 69.15
293.15 K, 101 kPa, x1 = 0.616 | 75.28
293.15 K, 101 kPa, x1 = 0.626 | 79.2
298 K, 101.33 kPa, x1 = 0.0038 | 0.939
298 K, 101.33 kPa, x1 = 0.007 | 0.979
298 K, 101.33 kPa, x1 = 0.014 | 1.075
298 K, 101.33 kPa, x1 = 0.0215 | 1.191
298 K, 101.33 kPa, x1 = 0.029 | 1.307
298 K, 101.33 kPa, x1 = 0.0376 | 1.457
298 K, 101.33 kPa, x1 = 0.0462 | 1.62
298 K, 101.33 kPa, x1 = 0.0537 | 1.786
298 K, 101.33 kPa, x1 = 0.0604 | 1.955
298 K, 101.33 kPa, x1 = 0.0714 | 2.204
298 K, 101.33 kPa, x1 = 0.0832 | 2.521
298 K, 101.33 kPa, x1 = 0.0925 | 2.842
298 K, 101.33 kPa, x1 = 0.1 | 3.033
298 K, 101.33 kPa, x1 = 0.106 | 3.198
298 K, 101.33 kPa, x1 = 0.111 | 3.378
298 K, 101.33 kPa, x1 = 0.151 | 4.902
298 K, 101.33 kPa, x1 = 0.2128 | 7.936
298 K, 101.33 kPa, x1 = 0.2654 | 11.32
298 K, 101.33 kPa, x1 = 0.311 | 14.88
298 K, 101.33 kPa, x1 = 0.3511 | 18.8
298 K, 101.33 kPa, x1 = 0.3871 | 22.93
298 K, 101.33 kPa, x1 = 0.422 | 27.24
298 K, 101.33 kPa, x1 = 0.4737 | 35.19
298 K, 101.33 kPa, x1 = 0.5388 | 46.3
298 K, 101.33 kPa, x1 = 0.6043 | 59.76
298.15 K, 100 kPa, x2 = 0.333 | 70.64
298.15 K, 101 kPa, x1 = 0.0018 | 0.9162
298.15 K, 101 kPa, x1 = 0.0054 | 0.9543
298.15 K, 101 kPa, x1 = 0.0089 | 1
298.15 K, 101 kPa, x1 = 0.012 | 1.054
298.15 K, 101 kPa, x1 = 0.016 | 1.089
298.15 K, 101 kPa, x1 = 0.404 | 24.33
298.15 K, 101 kPa, x1 = 0.441 | 27.61
298.15 K, 101 kPa, x1 = 0.504 | 37.59
298.15 K, 101 kPa, x1 = 0.537 | 43.17
298.15 K, 101 kPa, x1 = 0.574 | 50.35
298.15 K, 101 kPa, x1 = 0.603 | 54.12
298.15 K, 101 kPa, x1 = 0.616 | 60.3
298.15 K, 101 kPa, x1 = 0.626 | 64.75
303.15 K, 100 kPa, x2 = 0.333 | 55.6
303.15 K, 101 kPa, x1 = 0.0018 | 0.8163
303.15 K, 101 kPa, x1 = 0.0054 | 0.8526
303.15 K, 101 kPa, x1 = 0.0089 | 0.8928
303.15 K, 101 kPa, x1 = 0.012 | 0.9281
303.15 K, 101 kPa, x1 = 0.016 | 0.9679
303.15 K, 101 kPa, x1 = 0.404 | 20.3
303.15 K, 101 kPa, x1 = 0.441 | 23.66
303.15 K, 101 kPa, x1 = 0.504 | 30.35
303.15 K, 101 kPa, x1 = 0.537 | 34.61
303.15 K, 101 kPa, x1 = 0.574 | 38.68
303.15 K, 101 kPa, x1 = 0.603 | 43.03
303.15 K, 101 kPa, x1 = 0.616 | 46.81
303.15 K, 101 kPa, x1 = 0.626 | 52.57
308.15 K, 100 kPa, x2 = 0.333 | 46.73
308.15 K, 101 kPa, x1 = 0.0018 | 0.7331
308.15 K, 101 kPa, x1 = 0.0054 | 0.763
308.15 K, 101 kPa, x1 = 0.0089 | 0.794
308.15 K, 101 kPa, x1 = 0.012 | 0.84
308.15 K, 101 kPa, x1 = 0.016 | 0.8774
308.15 K, 101 kPa, x1 = 0.404 | 17.53
308.15 K, 101 kPa, x1 = 0.441 | 19.85
308.15 K, 101 kPa, x1 = 0.504 | 24.19
308.15 K, 101 kPa, x1 = 0.537 | 27.64
308.15 K, 101 kPa, x1 = 0.574 | 31.89
308.15 K, 101 kPa, x1 = 0.603 | 33.9
308.15 K, 101 kPa, x1 = 0.616 | 37.64
308.15 K, 101 kPa, x1 = 0.626 | 41.08
313.15 K, 100 kPa, x2 = 0.333 | 39.76
313.15 K, 101 kPa, x1 = 0.404 | 14.63
313.15 K, 101 kPa, x1 = 0.441 | 17.7
313.15 K, 101 kPa, x1 = 0.504 | 21.48
313.15 K, 101 kPa, x1 = 0.537 | 22.64
313.15 K, 101 kPa, x1 = 0.574 | 25.3
313.15 K, 101 kPa, x1 = 0.603 | 27.25
313.15 K, 101 kPa, x1 = 0.616 | 29.46
313.15 K, 101 kPa, x1 = 0.626 | 32.1
318.15 K, 100 kPa, x2 = 0.333 | 32.46
323.15 K, 100 kPa, x2 = 0.333 | 27.57

OCCC(O)CO (stereo not drawn) + O
viscosity [mPa·s], 101 kPa
Details | 293.15 K | 298.15 K | 303.15 K | 308.15 K | 313.15 K | 318.15 K | 323.15 K
x1 = 0.005 | 1.089 | 0.984 | 0.889 | 0.798 | 0.7 | 0.656 | 0.595
x1 = 0.01 | 1.271 | 1.096 | 0.968 | 0.863 | 0.769 | 0.703 | 0.626
x1 = 0.015 | 1.46 | 1.193 | 1.067 | 0.942 | 0.853 | 0.77 | 0.678
x1 = 0.02 | 1.617 | 1.328 | 1.195 | 1.058 | 0.937 | 0.857 | 0.732

C=C(C)C(=O)OCc1ccccc1 + O=C1CCCCC1
viscosity [mPa·s], 101 kPa
Details | x2 = 0.1 | x2 = 0.1999 | x2 = 0.3 | x2 = 0.3999 | x2 = 0.5 | x2 = 0.6 | x2 = 0.7 | x2 = 0.8 | x2 = 0.9
298.15 K | 2.208 | 2.141 | 2.079 | 2.038 | 2.002 | 1.972 | 1.95 | 1.943 | 1.934
308.15 K | 1.816 | 1.765 | 1.718 | 1.687 | 1.656 | 1.632 | 1.617 | 1.602 | 1.589
318.15 K | 1.519 | 1.484 | 1.447 | 1.422 | 1.398 | 1.383 | 1.369 | 1.356 | 1.348

CC(=O)OCCC(C)C + O=[N+]([O-])c1ccccc1
viscosity [mPa·s], 101 kPa
Details | 298.15 K | 308.15 K
x1 = 0.0448 | 1.721 | 1.488
x1 = 0.1512 | 1.567 | 1.367
x1 = 0.249 | 1.439 | 1.267
x1 = 0.3494 | 1.321 | 1.174
x1 = 0.4412 | 1.222 | 1.096
x1 = 0.5 | 1.164 | 1.05
x1 = 0.5486 | 1.118 | 1.014
x1 = 0.6489 | 1.03 | 0.945
x1 = 0.7486 | 0.951 | 0.882
x1 = 0.8513 | 0.876 | 0.823
x1 = 0.9464 | 0.814 | 0.773
